Consider four molecules from patent publication US12391919B2, “Culture medium, coating matrix and method for maturing midbrain dopaminergic progenitor cells” (NUWACELL BIOTECHNOLOGIES CO., LTD., priority 2022, dated 2025).

Holding throughout (type): cell-based, human
Experiment [1] relates to imDAPs. As to the kind of experiment: imDAP expansion: cell morphology, cell number (Vi-cell cytometer), expansion fold, Population Doubling Time. As for the experimental part:
imDAPs were produced according to the method described in CN201910169525.0. The imDAPs (P0) were seeded on VTN-coated plates (1 μg/cm^2) at a density of 1×10^5 cells/cm^2 in the expansion medium (50% DMEM/F12, 50% Neurobasal™ medium, 1% (v/v) Glutamax, 2% (v/v) B27 (50×), 0.2 μM LDN193189, 3 μM CHIR99021, 100 ng/mL FGF8b) in the absence or presence of 5 μM Blebbistatin. In case where Blebbistatin is present, Blebbistatin was either removed 24 hrs after plating or present throughout the culture period. The medium was changed every day for 5 days.
imDAPs were produced according to the method described in CN201910169525.0. The imDAPs (P0) were seeded on VTN-coated plates (1 μg/cm^2) at a density of 1×10^5 cells/cm^2 in the expansion medium (50% DMEM/F12, 50% Neurobasal™ medium, 1% (v/v) Glutamax, 2% (v/v) B27 (50×), 3 μM CHIR99021, 100 ng/mL FGF8b, […]) in the absence or presence of 0.2 μM LDN193189. The medium was changed every day for 5 days.
imDAPs were produced according to the method described in CN201910169525.0. The imDAPs (P0) were seeded on VTN-coated plates (1 μg/cm^2) at a density of 1×10^5 cells/cm^2 in the expansion medium (50% DMEM/F12, 50% Neurobasal™ medium, 1% (v/v) Glutamax, 2% (v/v) B27 (50×), 0.2 μM LDN193189, 3 μM CHIR99021, 100 ng/mL FGF8b, 5 μM Blebbistatin). The medium was changed every day. When imDAPs reach 100% confluence (4-5 days), cells were passaged enzymatically with 1× TrypLE, centrifuged at 250 g for 5 minutes, counted and replaced on new VTN-coated plates (1 μg/cm^2) at a density of 1×10^5 cells/cm^2 in the expansion medium. imDAPs were continuously expanded for 6 passages. At each passage, imDAPs were harvested at an expansion fold 5˜10 (over the initial number of imDAPs plated).
imDAPs were produced according to the method described in CN201910169525.0. The imDAPs (P0) were seeded on DLL4-coated ([…]), VTN-coated (1 μg/cm^2) and DLL4/VTN-coated ([…]) plates at a low density of 1×10^4 cells/cm^2 respectively, and cultured in the expansion medium in the absence or presence of 5 µM SB431542. Medium was replaced every 3rd day until reaching 100% confluence (6 days) for cell collection. The typical cell morphology on day 4 was recorded (FIG. 4A). The cell number of each group was counted by Vi-cell cytometer (FIG. 4B). The cells of each group were stained with Foxa2-PE antibody (BD, #561589), the percentage of Foxa2+ imDAPs were analyzed by flow cytometry (FIG. 4C). The expansion medium used in this example contained the following components: 50% DMEM/F12, 50% Neurobasal™ medium, 1% (v/v) Glutamax, 1% (v/v) B27, 50 μg/ml ascorbic acid, 0.2 μM LDN193189, 100 ng/ml FGF8b, 3 μM CHIR99021 and 10 μM Y27632.
imDAPs were produced according to the method described in CN201910169525.0. The imDAPs (P0) were seeded on DLL4/VTN-coated (1 μg/cm^2 for each) plates at a low density of 1×10^4 cells/cm^2, and cultured in the expansion medium (EM1, EM2, EM3, EM4). Medium was replaced every 3rd day until reaching 100% confluence (6 days) for cell collection. EM1 used in Example 9 contained the following components: 50% DMEM/F12, 50% Neurobasal™ medium, 1% (v/v) Glutamax, 1% (v/v) B27 (50×), […], 3 μM CHIR99021, 5 μM SB431542 and 10 μM Y27632. EM2 used in Example 9 contained the following components: 50% DMEM/F12, 50% Neurobasal™ medium, 1% (v/v) Glutamax, 1% (v/v) B27 (50×), 50 μg/ml ascorbic acid, […] LDN193189, 3 μM CHIR99021, 5 μM SB431542 and 10 μM Y27632. EM3 used in Example 9 contained the following components: 50% DMEM/F12, 50% Neurobasal™ medium, 1% (v/v) Glutamax, 1% (v/v) B27 (50×), 50 μg/mL ascorbic acid, […], 100 ng/ml FGF8b, 3 μM CHIR99021, 5 μM SB431542 and 10 μM Y27632. EM4 used in Example 9 contained the following components: 50% DMEM/F12, 50% Neurobasal™ medium, 1% (v/v) Glutamax, 1% (v/v) B27 (50×), 50 μg/ml ascorbic acid, 0.2 μM LDN193189, 10 ng/ml FGF2, 3 μM CHIR99021, 5 μM SB431542 and 10 μM Y27632. […]

For experiment [2], the system named is imDAPs. As to the kind of experiment: imDAP maturation: cell morphology, adhesion and cell yield. Particulars: Example 12; 1 μM IWR1 for at least 3 days; day 7; FIG. 7D. As for the experimental part:
imDAPs were produced according to the method described in CN201910169525.0, and expanded as described in Example 10. […] MM-H used in Example 11 contained the following components: Neurobasal™ medium, 1% (v/v) Glutamax, 0.5 mM Db-cAMP sodium salt, 200 μM ascorbic acid, 20 ng/ml BDNF, 20 ng/ml GDNF, 1 ng/ml TGF-β3, 10 μM DAPT, HhPLT (0.5%, 1%, 2%). MM-B used in Example 11 contained the following components: Neurobasal, 1% (v/v) Glutamax, 0.5 mM Db-cAMP sodium salt, 200 μM ascorbic acid, 20 ng/ml BDNF, 20 ng/ml GDNF, 1 ng/ml TGF-β3, 10 μM DAPT, 2% (v/v) B27 (50×) (as control). The above HhPLT was produced from hPLT as follows. The hPLT was centrifuged at 3000 g for 30 min at 4° C. to obtain the supernatant, which was heated to 56° C. for 30 min. The suspension was finally cooled down to 4° C. at least 5 min, and spun at 3000 g for 30 min at 4° C. to obtain the HhPLT supernatant. Aliquots were prepared and stored at −80° C. until use. The above Medium was changed every 3rd day. On day 7, the imDAPs at early maturation stage were dissociated enzymatically with 1× TrypLE, centrifuged at 250 g for 5 minutes.
imDAPs were produced according to the method described in CN201910169525.0, and expanded as described in Example 10. […] Medium was changed every 3rd day. On day 7, the imDAPs at early maturation stage were dissociated enzymatically with 1× TrypLE, centrifuged at 250 g for 5 minutes. Cells were collected for RT-qPCR analysis of EN1, LMX1A, FOXA2, NURR1, SOX6 and TH gene expression. The maturation medium used in Example 12 contained the following components: Neurobasal™ medium, 1% (v/v) Glutamax, 1% (v/v) HhPLT, 0.5 mM Db-cAMP sodium salt, 200 μM ascorbic acid, 20 ng/mL BDNF, 20 ng/mL GDNF, 1 ng/mL TGF-β3, 10 μM DAPT.
imDAPs were produced according to the method described in CN201910169525.0, and expanded as described in Example 10. […] Cells were collected and counted by Vi-cell cytometer. The cells were analyzed by RT-qPCR for EN1, LMX1A, FOXA2, NURR1, SOX6 and TH gene expression. […]

In experiment [3] the test system is imDAPs. As to the kind of experiment: Flow cytometry (FACS) analysis of FOXA2 expression in expanded imDAPs. The note with it: Example 8; VTN or DLL4/VTN coating, with or without SB431542; FIG. 4C. As to the method: • 1. Individualize and collect cells by either Accutase or TrypLE treatment. • 2. Wash cells with 1 ml PBS and pellet cells at 250×g for 15 sec. • 3. Remove supernatant, add ˜200 μl of 4% PFA, mix and fix for 10 min at RT. • 4. Pellet cells at 350×g for 5 min. • 5. Wash cells by 1 ml of FACS buffer and pellet cells at 350×g for 5 min. • 6. Remove supernatant, add 200 μl/tube of FACS buffer/0.1% TritonX, mix for 10 min at RT. • 7. Wash cells by 1 ml of FACS buffer and pellet cells at 350×g for 5 min. • 8. Remove supernatant, add 200 μl/tube of primary antibody diluted in FACS buffer, mix gently, and incubate for 30 min at RT. • 9. Wash cells by 1 ml of FACS buffer and pellet cells at 350×g for 5 min. • 10. Remove supernatant, and add 200 μl of secondary antibody diluted in FACS buffer, mix gently, and incubate for 30 min at RT. • 11. Wash cells by 1 ml of FACS buffer and pellet cells at 300×g for 5 min. • 12. Remove supernatant, add 200 μl of FACS buffer, and run samples on the flow cytometry. (2) qRT-PCR • 1. For qRT-PCR analysis of mRNA gene expression, RNA should be harvested from at least 2×10^6 cells. • 2. Harvest cells, add 350 μl of buffer RLT+1% (vol/vol) s-mercaptoethanol to the well, transfer the lysate to a 1.5 ml tube, and put it immediately on ice. • 3. Perform RNA extraction using the Tiangen Kit (DP430), and follow the manufacturer's protocol ‘Purification of total RNA from animal and human cells’. • 4. When the RNA extraction was completed, determine the RNA concentration using a Nanodrop instrument. • 5. Perform the first-strand cDNA synthesis reaction with 1 μg of RNA using the HiScript TM II Q RT SuperMIX for qPCR(+gDNA wiper) Kit (Vazyme, #R223-01) for RT-qPCR. Follow the manufacturer's ‘First-Strand cDNA Synthesis’ protocol. This reaction would yield a 20 μl product. • 6. Dilute the 10 μl cDNA product in 80 μl of nuclease-free water. • 7. Pipette the diluted cDNA product (1 μl), Sybr green master mix (5 μl, Transgen, #AQ131) and 0.95 μM reverse/forward primer mix (4 μl) into a 384-well PCR plate in triplicate, either manually or using an automated pipetting robot. The complete primer panel included the target genes and the housekeeping gene (RPL13A). In the analysis, also included a sample of undifferentiated hPSCs to determine the gene expression levels relative to the expression in hPSCs. • 8. Analyze the samples by running a quantitative PCR on the LightCycler 480 instrument using a 40× cycle two-step protocol with a 60° C., 60 sec annealing/elongation step and a 95° C., 30 sec denaturation step. The average CT values from the three technical replicates were used for calculations of relative gene expression using the ΔΔCT method. For each gene, calculate the FC of the differentiated samples relative to the undifferentiated control sample using the housekeeping gene for normalization. Next, calculate the average of the FC values on the basis of the housekeeping gene. (3) Immunocytochemical Analysis • 1. Cell fixation: Remove the medium from the cells and wash with PBS. Add 4% (wt/vol) PFA (e.g., 200 μl to a well in a 48-well plate) and incubate at room temperature (RT) for 15 min. after incubation, wash the cells three times in PBS. • 2. Blocking: Remove PBS from the wells and add blocking solution to the cells, add enough volume to cover the cells. Leave the cells in blocking solution for 1 h at RT. • 3. Primary antibodies incubation: Remove the blocking solution from the cells and add the primary antibody solutions (˜100 μl/cm^2). […]
(In general: In flow cytometry, cells or beads pass a laser one at a time.)

Regarding `Cc1ccc2c(c1)C(=O)C1(O)CCN(c3ccccc3)C1=N2` (centres unmarked) [Blebbistatin], in the experiment on imDAPs [1] (Example 1, 5 μM Blebbistatin throughout culture vs no Blebbistatin or plating day only, VTN-coated plates, 5 days, FIG. 1A), the “imDAP expansion (cell morphology)” value is recorded as “supported better imDAP expansion”. As to `O=C(Nc1cccc2cccnc12)c1ccc(N2C(=O)[C@@H]3[C@H](C2=O)[C@@H]2C=C[C@H]3C2)cc1` [IWR1], the “cell morphology during maturation” value in the experiment with imDAPs [2] is recorded as “showed more obvious neural fibers”.

`NC(=O)c1ccc(-c2nc(-c3ccc4c(c3)OCO4)c(-c3ccccn3)[nH]2)cc1` [SB431542]: the “FOXA2 expression (percentage of Foxa2+ imDAPs)” value with imDAPs [3] is “could improve FOXA2 expression”. As for “FGF2: fibroblast growth factor, used at 10 ng/ml”, the “imDAP expansion (overall conclusion)” value in the experiment with imDAPs [1] (Example 9) is given as “had no additional effects on imDAP expansion”. Further, in the experiment on imDAPs [1] (Example 9, 10 ng/ml FGF2 (EM4), DLL4/VTN-coated, day 5, FIG. 5A), the “cell morphology of expanded imDAPs” value was “some obvious heterogeneous cells were observed”.
